Patent US7371874B2, “6-Alkylamino-2-methyl-2′-(N-methyl substituted sulfonamido)methyl-2H-1-benzopyran derivative as anti-inflammatory inhibitor” (Korea Research Institute of Chemical Technology, priority 2005, dated 2008)

How the values were obtained:
[1] = tested on: LTB4 in Rat basophilic leukemia (RBL-1) cells; experiment: LTB4 cell-based assay (RBL-1 cells, A23187, ELISA); settings: A23187 10 μM, LTB4 by ELISA
Experimental: Rat basophilic leukemia (RBL-1) cells were inoculated at a 24-well plate to a final concentration of 7.5×10^5 cells/well and incubated for 2 hours, so that they adhered to the bottom of the plate. […] The well plate was centrifuged at 1,500 g for 20 minutes to isolate the supernatant and then the amount of LTB4 of the supernatant was measured with ELISA analysis.

5-LO = target: T1, 5-LO (Homo sapiens, UniProt P09917); experiment: 5-Lipoxygenase enzyme assay, bioassay using FOX reagent; format: biochemical; settings: test compound 1 μM; lysate from 5-LO expressed insect cells; arachidonic acid 40 μM
T1 construct: made in house; host or cells: insect cells (crude lysate)
T1 sequence (P09917 1-674): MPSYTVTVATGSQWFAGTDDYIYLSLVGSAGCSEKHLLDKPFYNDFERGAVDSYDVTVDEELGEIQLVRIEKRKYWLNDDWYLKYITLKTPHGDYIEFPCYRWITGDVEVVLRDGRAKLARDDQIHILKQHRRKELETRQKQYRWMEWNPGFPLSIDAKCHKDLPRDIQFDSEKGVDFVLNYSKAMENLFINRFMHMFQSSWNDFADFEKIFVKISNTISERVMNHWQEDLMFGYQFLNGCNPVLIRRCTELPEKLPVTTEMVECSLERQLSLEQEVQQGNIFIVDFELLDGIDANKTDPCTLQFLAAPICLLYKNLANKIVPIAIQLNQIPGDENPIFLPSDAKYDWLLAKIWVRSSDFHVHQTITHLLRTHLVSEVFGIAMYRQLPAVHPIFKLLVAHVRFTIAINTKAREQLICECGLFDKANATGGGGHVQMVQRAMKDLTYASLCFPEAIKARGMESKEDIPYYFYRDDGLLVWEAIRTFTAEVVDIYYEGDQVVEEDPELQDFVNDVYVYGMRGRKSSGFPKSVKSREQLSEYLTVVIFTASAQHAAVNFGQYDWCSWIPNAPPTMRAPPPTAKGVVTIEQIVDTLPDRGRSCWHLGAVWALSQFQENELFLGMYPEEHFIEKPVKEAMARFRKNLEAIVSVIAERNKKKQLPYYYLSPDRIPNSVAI
Experimental: 1. 5-Lipoxygenase enzyme assay
1) Bioassay Using FOX Reagent
Each test compound (final concentration=1 μM) was added to a lysate (7 μg) obtained from 5-LO expressed insect cells and reaction was performed at room temperature for 3 minutes. Then, arachidonic acid (40 μM) was added as enzyme substrate and reaction was further performed at room temperature for 4 minutes. 100 μL of a FOX reagent (sulfuric acid 25 mM, xylenol orange 100 μM, FeSO4 100 μM, methanol/water=9:1) was added thereto and then, after 5 minutes, absorbance was measured at 575 nm.

Mouse ear edema = experiment: In vivo bioassay (mouse ear edema model, arachidonic acid); design: species or system ICR mouse; settings: oral in 0.5% methylcellulose 1 hour before arachidonic acid, compared with control; for Mouse ear edema model (in vivo assay): Thickness: ear thickness after 1 hour; for Mouse ear edema model (in vivo assay): MPO: myeloperoxidase activity of ear tissue
Experimental: 3. In Vivo Bioassay (Mouse Ear Edema Model)
The inside of the right ear of an ICR mouse (6 weeks old) was treated with 2 mg of arachidonic acid dissolved in 20 μL of acetone for 1 hour to induce an inflammation.
After 1 hour, the difference of thickness T (%) between the arachidonic acid-treated right ear and the non-treated left ear was measured with a microgauge.
Further, myeloperoxidase (MPO) activity was measured in order to measure the amount of neutrophil penetrated into the tissue as a primary marker for induced inflammation. The tissue obtained from the arachidonic acid-treated right ear was homogenized in a 50 mM phosphate buffer solution (pH 6.0) containing 0.5% hexadecyltrimethylammonium bromide (HTAB), centrifuged and then the MPO activity (MPO %) of the supernatant was measured.
To measure in vivo activity of each test compound, each compound was dissolved in 0.5% methylcellulose (10 mL/kg) and orally administered to a mouse 1 hour before treatment with arachidonic acid. Then, arachidonic acid was treated for 1 hour and the thickness of ear and MPO activity were measured. In vivo activity of each test compound was estimated by comparing the test result with that of a control which was treated only with arachidonic acid, without the test compound.

Structure (SMILES) | Cell-based assay (% inhibition, at 1 μM) [1] [%] | 5-LO enzyme assay (% inhibition, at 1 μM) (5-LO) [%] | Mouse ear edema model (in vivo assay): Thickness (Mouse ear edema) | Mouse ear edema model (in vivo assay): MPO (Mouse ear edema) | inhibition at 1 µM (5-LO) [%]
COc1ccc(CNc2ccc3c(c2)C=CC(C)(CN(C)S(=O)(=O)c2ccccc2)O3)cc1 (centres unmarked) [1-1-1] | 82 | 86 | Thickness 62% | MPO 34% | 
CN(CC1(C)C=Cc2cc(NCc3ccc(C#N)cc3)ccc2O1)S(=O)(=O)c1ccccc1 (centres unmarked) [1-1-7] | 71 | 80 |  |  | 
CN(CC1(C)C=Cc2cc(NCc3ccc(F)cc3)ccc2O1)S(=O)(=O)c1ccccc1 (centres unmarked) [1-1-10] | 81 | 87 | Thickness 60% | MPO 27% | 
CN(CC1(C)C=Cc2cc(NCc3cccc(F)c3)ccc2O1)S(=O)(=O)c1ccccc1 (centres unmarked) [1-1-11] | 58 | 73 |  |  | 
CN(CC1(C)C=Cc2cc(NCc3ccsc3)ccc2O1)S(=O)(=O)c1ccccc1 (centres unmarked) [1-1-24] |  |  |  |  | 44
COc1ccc(S(=O)(=O)N(C)CC2(C)C=Cc3cc(NCc4ccc(C)s4)ccc3O2)cc1 (centres unmarked) [1-1-40] | 38 | 45 |  |  | 
COc1ccc(S(=O)(=O)N(C)CC2(C)C=Cc3cc(NCc4ccsc4)ccc3O2)cc1 (centres unmarked) [1-1-51] | 36 | 48 |  |  | 
CCOC(OCC)c1ccc(CNc2ccc3c(c2)C=CC(C)(CN(C)S(=O)(=O)c2ccc(C)cc2)O3)cc1 (centres unmarked) [1-1-103] | 52 | 63 |  |  | 
CN(CC1(C)C=Cc2cc(NCc3ccsc3)ccc2O1)S(=O)(=O)c1ccc(C(C)(C)C)cc1 (centres unmarked) [1-1-132] | 35 | 47 |  |  | 
COc1ccc(CNc2ccc3c(c2)C=CC(C)(CN(C)S(=O)(=O)Cc2ccccc2)O3)cc1 (centres unmarked) [1-1-163] | 43 | 61 |  |  | 
CN(CC1(C)C=Cc2cc(NCc3ccncc3)ccc2O1)S(=O)(=O)Cc1ccccc1 (centres unmarked) [1-1-183] |  |  |  |  | 45
COc1ccc(CNc2ccc3c(c2)C=CC(C)(CN(C)S(=O)(=O)c2ccc(Cl)cc2)O3)cc1 (centres unmarked) [1-1-217] | 56 | 70 |  |  | 
COc1ccc(CNc2ccc3c(c2)C=CC(C)(CN(C)S(=O)(=O)c2ccc(F)cc2)O3)cc1 (centres unmarked) [1-1-244] | 41 | 67 |  |  | 
Cc1ccc(CNc2ccc3c(c2)C=CC(C)(CN(C)S(=O)(=O)c2ccc(F)cc2)O3)s1 (centres unmarked) [1-1-256] | 63 | 79 |  |  | 
CCCS(=O)(=O)N(C)CC1(C)C=Cc2cc(NCc3ccc(OC)cc3)ccc2O1 (centres unmarked) [1-1-298] | 47 | 73 |  |  | 
Cc1cc2c(cc1NCc1ccc(C#N)cc1)C=CC(C)(CN(C)S(=O)(=O)c1ccccc1)O2 (centres unmarked) [1-2-7] | 61 | 79 |  |  | 
Cc1cc2c(cc1NCc1cccs1)C=CC(C)(CN(C)S(=O)(=O)c1ccccc1)O2 (centres unmarked) [1-2-23] | 74 | 80 |  |  | 
CC(c1cc2ccccc2s1)N(O)C(N)=O (centres unmarked) [reference compound] |  |  | 67% | 38% | 
